# Experimental data taken from patent US20180125073A1, “PESTICIDAL COMPOSITIONS AND RELATED METHODS” (priority 2015, published 2018).
# Tested on: green peach aphids (Myzus persicae)
# Experiment: Pesticidal activity against green peach aphid on cabbage plants after soil treatment
# Type: in vivo
# Details: no surfactant added
# Description: Each tested compositions was prepared by mixing a predetermined amount of the CLOSER® SC insecticide (a sulfoxaflor concentrate having a sulfoxaflor concentration of 240 g/L) with a predetermined amount of the selected nonionic surfactant in an aqueous medium. Two nonionic surfactants were used in the study: alkyl polyglycoside AGNIQUE® PG 8107 surfactant from Cognis Corporation (C8-C10 alkyl polyglycoside with degree of polymer of 1.7), and PEG-3 tridecyl alcohol ether MAKON® TD3 surfactant from Stepan Company.
# For example, the “Sulfoxaflor at 100 ppm” composition contained about 0.043% weight of sulfoxaflor based on the total weight of the composition (i.e., 100 ppm of sulfoxaflor per one gram of final soil mixture). “Sulfoxaflor at 100 ppm+AGNIQUE®” composition contained about 0.043% weight of sulfoxaflor based on the total weight of the composition (i.e., 100 ppm of sulfoxaflor per one gram of final soil mixture), and about 0.225% weight of alkyl polyglycoside AGNIQUE® PG 8107 surfactant based on the total weight of the composition (i.e., 384 ppm per one gram of the final soil mixture; 1500 ppm per one gram of the total soil liquid).
# The imidacloprid pesticide PROVADO® 1.6 from Bayer CropScience LP (North Carolina, USA) was used as a standard commercial pesticidal composition for aphid control. The imidacloprid pesticide PROVADO® 1.6 was tested at three different loadings: 100 ppm, 25 ppm, and 6.25 ppm per gram of final soil mixture.
# In this EXAMPLE 7, water was tested as a control composition. Furthermore, an aqueous solution of alkyl polyglycoside AGNIQUE® PG 8107 surfactant and an aqueous solution of PEG-3 tridecyl alcohol ether MAKON® TD3 surfactant were tested. […]
# Each of the 1-ounce clear cups was filled with about 30 grams of the inoculated Midwest field soil having the components as shown in TABLE 7. […] The soil moisture of the Midwest field soil was about 15% as measured by Mettler LJ16 Moisture Analyzer (15 minutes and 100° C.). […]
smiles,measurement,setting,value
"C[C@@H](c1ccc(C(F)(F)F)nc1)[S@@](C)(=O)=NC#N (racemic) [Sulfoxaflor, [methyl(oxo) {1-[6-(trifluoromethyl)-3-pyridyl]ethyl}-λ^6-sulfanylidene]cyanamide]",number of live GPA aphids on cabbage plant,"DAT of 21 days, loading 6.25 ppm",about 38
same,number of live GPA aphids on cabbage plant,"DAT of 21 days, loading 100 ppm per gram of final soil mixture",no live GPA aphid
same,number of live GPA aphids on cabbage plant,"DAT of 28 days, sulfoxaflor 100 ppm",no live GPA aphid
